This note sets out measurements from ChEMBL document CHEMBL3997794, “Design and synthesis of benzodiazepine analogs as isoform-selective human lysine deacetylase inhibitors” (Eur J Med Chem, 2017).

Experiment [1] addresses T1, Histone deacetylase 3 (Homo sapiens, UniProt O15379). Put plainly: Inhibition of human KDAC3 at 30 uM using FITC-labeled p53 acetylated peptide as substrate after 60 mins by fluorescence assay relative to control.
The target in a further experiment is T2, Histone deacetylase 8 (Homo sapiens, UniProt Q9BY41).
T2 sequence (Q9BY41 whole entry): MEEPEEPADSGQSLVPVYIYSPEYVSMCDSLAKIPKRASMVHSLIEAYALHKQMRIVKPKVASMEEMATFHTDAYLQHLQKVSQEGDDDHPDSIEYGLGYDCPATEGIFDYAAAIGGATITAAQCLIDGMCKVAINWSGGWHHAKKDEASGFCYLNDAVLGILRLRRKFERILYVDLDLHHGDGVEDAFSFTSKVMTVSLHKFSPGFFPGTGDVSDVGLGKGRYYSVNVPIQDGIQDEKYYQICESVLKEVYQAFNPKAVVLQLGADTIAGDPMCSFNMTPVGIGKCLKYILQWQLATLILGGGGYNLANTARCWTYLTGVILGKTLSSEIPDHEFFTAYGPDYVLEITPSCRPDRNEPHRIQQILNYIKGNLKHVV
The experiment in a line: Inhibition of human KDAC8 after 60 mins by fluorescence assay.

Experiment [2] has as its target T3, Protein deacetylase HDAC6 (Homo sapiens, UniProt Q9UBN7).
T3 sequence (Q9UBN7 whole entry): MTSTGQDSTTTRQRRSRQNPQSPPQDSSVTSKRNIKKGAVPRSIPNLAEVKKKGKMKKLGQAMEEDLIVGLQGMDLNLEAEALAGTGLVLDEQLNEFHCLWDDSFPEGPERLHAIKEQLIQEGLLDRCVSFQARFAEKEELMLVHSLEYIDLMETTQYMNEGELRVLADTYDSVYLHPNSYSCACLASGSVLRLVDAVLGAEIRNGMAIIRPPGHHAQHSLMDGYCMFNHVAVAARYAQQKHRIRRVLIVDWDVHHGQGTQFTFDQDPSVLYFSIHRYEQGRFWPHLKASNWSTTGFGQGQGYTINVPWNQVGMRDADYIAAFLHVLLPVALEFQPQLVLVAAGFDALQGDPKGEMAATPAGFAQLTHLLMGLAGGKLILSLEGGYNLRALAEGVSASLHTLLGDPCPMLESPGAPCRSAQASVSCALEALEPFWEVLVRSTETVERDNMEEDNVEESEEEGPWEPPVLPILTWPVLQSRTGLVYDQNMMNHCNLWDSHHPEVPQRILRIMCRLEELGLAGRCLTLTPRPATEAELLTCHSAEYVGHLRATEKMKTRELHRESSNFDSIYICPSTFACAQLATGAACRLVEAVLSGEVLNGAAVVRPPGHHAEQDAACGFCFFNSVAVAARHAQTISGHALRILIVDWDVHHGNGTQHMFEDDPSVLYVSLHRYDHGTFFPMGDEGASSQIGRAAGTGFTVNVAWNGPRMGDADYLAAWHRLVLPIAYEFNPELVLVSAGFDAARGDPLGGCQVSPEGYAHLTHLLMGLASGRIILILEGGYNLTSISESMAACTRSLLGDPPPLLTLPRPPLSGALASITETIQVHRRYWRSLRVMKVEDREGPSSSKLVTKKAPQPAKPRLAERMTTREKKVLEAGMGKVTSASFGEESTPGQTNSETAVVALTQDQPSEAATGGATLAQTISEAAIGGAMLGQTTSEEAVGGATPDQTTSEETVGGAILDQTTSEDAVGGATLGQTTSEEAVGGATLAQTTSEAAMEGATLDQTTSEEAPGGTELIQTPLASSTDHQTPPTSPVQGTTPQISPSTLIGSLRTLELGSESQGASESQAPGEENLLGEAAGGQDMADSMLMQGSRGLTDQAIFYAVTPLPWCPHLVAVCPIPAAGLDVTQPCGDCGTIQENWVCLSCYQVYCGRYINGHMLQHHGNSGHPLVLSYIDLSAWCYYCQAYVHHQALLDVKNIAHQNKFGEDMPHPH
Put plainly: Inhibition of human KDAC6 using FITC-labeled histone H4 acetylated peptide as substrate after 60 mins by fluorescence assay.

Experiment [3] concerns the target T4, Protein deacetylase HDAC6 (Homo sapiens) (UniProt Q9UBN7).
T4 sequence (whole entry): T3 sequence (Q9UBN7 whole entry)
The note with it: at 30 µM.
Description: Inhibition of human KDAC6 at 30 uM using FITC-labeled histone H4 acetylated peptide as substrate after 60 mins by fluorescence assay relative to control

Experiment [4] addresses T1, Histone deacetylase 3. Put plainly: Inhibition of human KDAC3 using FITC-labeled p53 acetylated peptide as substrate after 60 mins by fluorescence assay.
The target of experiment [5] is T5, Histone deacetylase 8 (Homo sapiens) (UniProt Q9BY41).
T5 sequence (whole entry): T2 sequence (Q9BY41 whole entry)
Put plainly: Inhibition of human KDAC8 at 30 uM after 60 mins by fluorescence assay relative to control.

Experiment [6] addresses T6, Histone deacetylase 1 (Homo sapiens, UniProt Q13547). Put plainly: Inhibition of human KDAC1 using substrate A after 60 mins by fluorescence assay.
Experiment [7] deals with T6, Histone deacetylase 1. The experiment in a line: Inhibition of human KDAC1 at 30 uM using substrate A after 60 mins by fluorescence assay relative to control.

The structures appear in SMILES notation.

T6 sequence (Q13547 whole entry): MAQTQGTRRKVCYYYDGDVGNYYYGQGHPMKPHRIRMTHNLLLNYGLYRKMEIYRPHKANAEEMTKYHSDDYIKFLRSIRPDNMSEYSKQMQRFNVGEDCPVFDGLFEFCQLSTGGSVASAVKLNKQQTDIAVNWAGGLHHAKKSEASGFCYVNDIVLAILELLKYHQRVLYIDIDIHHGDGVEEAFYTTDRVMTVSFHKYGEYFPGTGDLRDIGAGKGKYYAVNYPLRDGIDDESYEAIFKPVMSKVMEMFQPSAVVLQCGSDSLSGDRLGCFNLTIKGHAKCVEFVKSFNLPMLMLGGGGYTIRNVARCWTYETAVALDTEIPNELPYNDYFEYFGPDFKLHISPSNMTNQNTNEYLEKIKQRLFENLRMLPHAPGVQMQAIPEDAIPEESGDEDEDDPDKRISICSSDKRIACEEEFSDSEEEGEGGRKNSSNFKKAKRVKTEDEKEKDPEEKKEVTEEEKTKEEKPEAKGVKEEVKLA
T1 sequence (O15379 whole entry): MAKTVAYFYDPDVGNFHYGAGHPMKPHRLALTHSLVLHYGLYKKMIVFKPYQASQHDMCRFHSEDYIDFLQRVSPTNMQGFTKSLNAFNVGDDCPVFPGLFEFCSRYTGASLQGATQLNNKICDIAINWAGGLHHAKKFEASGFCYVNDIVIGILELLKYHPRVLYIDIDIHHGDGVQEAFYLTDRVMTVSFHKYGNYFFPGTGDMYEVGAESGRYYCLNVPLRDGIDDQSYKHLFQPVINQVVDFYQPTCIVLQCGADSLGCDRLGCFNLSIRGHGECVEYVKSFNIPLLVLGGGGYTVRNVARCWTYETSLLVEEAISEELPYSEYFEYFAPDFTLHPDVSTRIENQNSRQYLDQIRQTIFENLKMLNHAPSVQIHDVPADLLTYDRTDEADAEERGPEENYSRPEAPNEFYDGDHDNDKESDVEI

On to `CC(C)(C)SC[C@H]1N=C(c2ccccc2)c2ccccc2N(CCCCC(=O)NO)C1=O`, for which the inhibition (in general, the drop in the measured response relative to a control, in per cent) at Histone deacetylase 3 [1] was 98.8%; in experiment [3], 88%; in experiment [5] it was 44.6%; at Histone deacetylase 1 [7], 79.9%. Besides, the IC50 (as a rule, the concentration that gives 50% inhibition) is greater than 30 µM at Histone deacetylase 8, 5.37 µM in experiment [2], 0.75 µM at Histone deacetylase 3 [4] and 7.99 µM against Histone deacetylase 1 [6].
As for `CC(C)C[C@@H]1N=C(c2ccccc2)c2ccccc2N(CCCCC(=O)O)C1=O`, the inhibition was 0% against Histone deacetylase 3 [1], 0% in experiment [3], 7% in experiment [5] and 3.1% on Histone deacetylase 1 [7]. Moreover, the IC50 (on Histone deacetylase 8; in experiment [2]; on Histone deacetylase 3 [4]; at Histone deacetylase 1 [6]) was greater than 30 µM each time.
`O=C(CCCCN1C(=O)[C@H](Cc2cncn2C(c2ccccc2)(c2ccccc2)c2ccccc2)N=C(c2ccccc2)c2ccccc21)NO`: the inhibition was found to be 93.4% at Histone deacetylase 3 [1], 89.9% in experiment [3], 1.38% in experiment [5] and 22.3% against Histone deacetylase 1 [7]. In addition, the IC50 on Histone deacetylase 8 is greater than 30 µM; in experiment [2] it was 4.74 µM; on Histone deacetylase 3 [4] it was 2.55 µM; against Histone deacetylase 1 [6], greater than 30 µM.
Turning to `CC(C)[C@@H]1N=C(c2ccccc2)c2ccccc2N(CCCCC(=O)NO)C1=O`, the inhibition turned out to be 97% on Histone deacetylase 3 [1], 95.5% in experiment [3], 59.4% in experiment [5] and 81.4% against Histone deacetylase 1 [7]. The 50% inhibitory concentration (IC50) at Histone deacetylase 8 came to 19.8 µM; in experiment [2], 1.35 µM; on Histone deacetylase 3 [4], 0.6 µM; on Histone deacetylase 1 [6], 5.27 µM.
With `CC(C)(C)Oc1ccc(C[C@@H]2N=C(c3ccccc3)c3ccccc3N(CCCCC(=O)NO)C2=O)cc1`, the inhibition against Histone deacetylase 3 [1] turned out to be 98.4%; in experiment [3], 92.1%; in experiment [5], 89.9%; against Histone deacetylase 1 [7], 82%. Also, the IC50 on Histone deacetylase 8 was 3.3 µM; in experiment [2], 2.87 µM; against Histone deacetylase 3 [4], 0.85 µM; on Histone deacetylase 1 [6], 6.18 µM.
`O=C(CCCCN1C(=O)[C@H](Cc2ccc(O)cc2)N=C(c2ccccc2)c2ccccc21)NO`: the inhibition against Histone deacetylase 3 [1] was 86.4%; in experiment [3], 78.5%; in experiment [5], 14.9%; against Histone deacetylase 1 [7], 42.9%. The IC50 is greater than 30 µM on Histone deacetylase 8, 8.46 µM in experiment [2], 5.29 µM on Histone deacetylase 3 [4] and greater than 30 µM against Histone deacetylase 1 [6].
For `COC(=O)CCCCN1C(=O)[C@H](CC(C)C)N=C(c2ccccc2)c2ccccc21`, the inhibition was determined as 0% at Histone deacetylase 3 [1], 0% in experiment [3], 7.63% in experiment [5] and 8.85% on Histone deacetylase 1 [7]. Also, the IC50 (on Histone deacetylase 8; in experiment [2]; on Histone deacetylase 3 [4]; at Histone deacetylase 1 [6]) was greater than 30 µM each time.
Regarding `Cc1c(C)c(S(=O)(=O)NC(=N)NCCC[C@@H]2N=C(c3ccccc3)c3ccccc3NC2=O)c(C)c2c1OC(C)(C)C2`, the inhibition at Histone deacetylase 3 [1] worked out at 0.47%; in experiment [3] it was 0%; in experiment [5] it was 7.99%; on Histone deacetylase 1 [7], 8%. Besides, the concentration for half-maximal inhibition (IC50) (on Histone deacetylase 8; in experiment [2]; at Histone deacetylase 3 [4]; against Histone deacetylase 1 [6]) was greater than 30 µM in each case.
In the case of `C[C@@H](O)[C@@H]1N=C(c2ccccc2)c2ccccc2N(CCCCC(=O)NO)C1=O`, the inhibition at Histone deacetylase 3 [1] was determined as 94.2%; in experiment [3] it was 70.1%; in experiment [5], 40.3%; at Histone deacetylase 1 [7], 66.5%. The IC50 is greater than 30 µM against Histone deacetylase 8, 11.6 µM in experiment [2], 1.8 µM against Histone deacetylase 3 [4] and 11.2 µM against Histone deacetylase 1 [6].
Take `O=C(O)CCCCN1C(=O)CN=C(c2ccccc2)c2ccccc21`: the inhibition against Histone deacetylase 3 [1] worked out at 0%; in experiment [3], 0%; in experiment [5], 4.33%; against Histone deacetylase 1 [7], 6.45%. Moreover, the IC50 (at Histone deacetylase 8; in experiment [2]; against Histone deacetylase 3 [4]; at Histone deacetylase 1 [6]) was greater than 30 µM in each case.
With `O=C1Nc2ccccc2C(c2ccccc2)=N[C@H]1Cc1ccccc1`, the inhibition against Histone deacetylase 3 [1] was determined as 0%; in experiment [3], 3.33%; in experiment [5], 0%; against Histone deacetylase 1 [7] it was 0.91%. Moreover, the IC50 (against Histone deacetylase 8; in experiment [2]; on Histone deacetylase 3 [4]; at Histone deacetylase 1 [6]) was greater than 30 µM throughout.
`C[C@@H]1N=C(c2ccccc2)c2ccccc2N(CCCCC(=O)O)C1=O`: the inhibition on Histone deacetylase 3 [1] came to 0%; in experiment [3] it was 0.27%; in experiment [5] it was 8.87%; on Histone deacetylase 1 [7], 11.3%. For the same compound, the half-maximal inhibitory concentration (IC50) (against Histone deacetylase 8; in experiment [2]; at Histone deacetylase 3 [4]; on Histone deacetylase 1 [6]) was greater than 30 µM each time.
Regarding `CC(C)(C)OC(=O)NCCCC[C@@H]1N=C(c2ccccc2)c2ccccc2N(CCCCC(=O)O)C1=O`, the inhibition against Histone deacetylase 3 [1] is 0%; in experiment [3], 0%; in experiment [5], -2.29%; on Histone deacetylase 1 [7] it was 6%. In addition, the 50% inhibitory concentration (IC50) (on Histone deacetylase 8; in experiment [2]; at Histone deacetylase 3 [4]; against Histone deacetylase 1 [6]) was greater than 30 µM in each case.
Take `COC(=O)CCCCN1C(=O)[C@H](CC(=O)OC(C)(C)C)N=C(c2ccccc2)c2ccccc21`: the inhibition against Histone deacetylase 3 [1] is 0%; in experiment [3], 0%; in experiment [5] it was 0%; at Histone deacetylase 1 [7], 3.65%. The IC50 (at Histone deacetylase 8; in experiment [2]; at Histone deacetylase 3 [4]; against Histone deacetylase 1 [6]) was greater than 30 µM in each case.
With `COC(=O)CCCCN1C(=O)[C@H](Cc2ccc(OC(C)(C)C)cc2)N=C(c2ccccc2)c2ccccc21`, the inhibition was 0.98% against Histone deacetylase 3 [1], 0% in experiment [3], 0% in experiment [5] and 8.72% on Histone deacetylase 1 [7]. Further, the concentration for half-maximal inhibition (IC50) (on Histone deacetylase 8; in experiment [2]; against Histone deacetylase 3 [4]; against Histone deacetylase 1 [6]) was greater than 30 µM in each case.
Take `COC(=O)CCCCN1C(=O)[C@@H](CSC(C)(C)C)N=C(c2ccccc2)c2ccccc21`: the inhibition turned out to be 0% against Histone deacetylase 3 [1], 0% in experiment [3], 0% in experiment [5] and 3.94% against Histone deacetylase 1 [7]. For the same compound, the IC50 (on Histone deacetylase 8; in experiment [2]; on Histone deacetylase 3 [4]; on Histone deacetylase 1 [6]) was greater than 30 µM each time.
Consider `O=C(CCCCN1C(=O)[C@H](CO)N=C(c2ccccc2)c2ccccc21)NO`, for which the inhibition was determined as 85.9% at Histone deacetylase 3 [1], 74.4% in experiment [3], 19.9% in experiment [5] and 41% against Histone deacetylase 1 [7]. Besides, the IC50 is greater than 30 µM on Histone deacetylase 8, 6.35 µM in experiment [2], 4.94 µM against Histone deacetylase 3 [4] and greater than 30 µM against Histone deacetylase 1 [6].
For `CC(C)(C)OC(=O)n1c(C[C@@H]2N=C(c3ccccc3)c3ccccc3N(CCCCC(=O)O)C2=O)cc2ccccc21`, the inhibition against Histone deacetylase 3 [1] was found to be 0.79%; in experiment [3], 7.4%; in experiment [5], 23.2%; against Histone deacetylase 1 [7], 11.3%. Also, the IC50 (against Histone deacetylase 8; in experiment [2]; against Histone deacetylase 3 [4]; against Histone deacetylase 1 [6]) was greater than 30 µM each time.
